Assay results reported in the NIST ThermoML archive (doi:10.1021/je700260f).

Conditions: Liquid, Vibrating tube method

FC(C(F)(F)F)C(F)(F)F [1,1,1,2,3,3,3-heptafluoropropane]
Conditions	mass density [kg/m3]
333.14 K, 28231 kPa	1431.3
333.14 K, 28261 kPa	1431.4
333.14 K, 28291 kPa	1431.5
333.14 K, 28321 kPa	1431.5
333.14 K, 28346 kPa	1431.8
333.14 K, 28383 kPa	1431.9
333.14 K, 28426 kPa	1432.1
333.14 K, 28453 kPa	1432.3
333.14 K, 29468 kPa	1436.5
333.14 K, 29504 kPa	1436.7
333.14 K, 29539 kPa	1436.8
333.14 K, 29570 kPa	1437.1
333.14 K, 29596 kPa	1437.2
333.14 K, 29621 kPa	1437.1
333.14 K, 29660 kPa	1437.3
333.14 K, 29724 kPa	1437.5
333.14 K, 29789 kPa	1437.8
333.14 K, 29825 kPa	1437.9
333.14 K, 29848 kPa	1438.1
333.14 K, 29883 kPa	1438.3
333.14 K, 29910 kPa	1438.4
333.14 K, 29946 kPa	1438.5
333.14 K, 29982 kPa	1438.6
333.14 K, 30013 kPa	1438.8
333.14 K, 30054 kPa	1439.1
333.14 K, 30122 kPa	1439.3
333.14 K, 30215 kPa	1439.6
333.14 K, 30241 kPa	1439.8
333.14 K, 30272 kPa	1440
333.14 K, 30958 kPa	1442.6
333.14 K, 31004 kPa	1442.8
333.14 K, 31030 kPa	1443
333.14 K, 31064 kPa	1443.2
333.14 K, 31094 kPa	1443.2
333.14 K, 31125 kPa	1443.4
333.14 K, 31155 kPa	1443.4
333.14 K, 31190 kPa	1443.7
333.14 K, 31220 kPa	1443.6
333.14 K, 31247 kPa	1443.9
333.14 K, 31285 kPa	1444
333.14 K, 31317 kPa	1444
333.14 K, 31349 kPa	1444.1
333.14 K, 31380 kPa	1444.4
333.14 K, 31423 kPa	1444.5
333.14 K, 31458 kPa	1444.7
333.14 K, 31490 kPa	1444.8
333.14 K, 31523 kPa	1445
333.14 K, 31566 kPa	1445.1
333.14 K, 31598 kPa	1445.3
333.14 K, 31630 kPa	1445.3
333.14 K, 31662 kPa	1445.5
333.14 K, 31694 kPa	1445.6
333.14 K, 31730 kPa	1445.8
333.14 K, 31758 kPa	1445.8
333.14 K, 31790 kPa	1446
333.14 K, 31827 kPa	1446.1
333.14 K, 31857 kPa	1446.3
333.14 K, 31894 kPa	1446.5
333.14 K, 31930 kPa	1446.5
333.14 K, 31957 kPa	1446.6
333.14 K, 32003 kPa	1446.7
333.14 K, 32036 kPa	1446.9
333.14 K, 32069 kPa	1447
333.14 K, 32103 kPa	1447.2
333.14 K, 32135 kPa	1447.4
333.14 K, 32168 kPa	1447.4
333.14 K, 32197 kPa	1447.6
333.14 K, 32240 kPa	1447.7
333.14 K, 32275 kPa	1447.7
333.14 K, 32318 kPa	1448
333.14 K, 32349 kPa	1448.2
333.14 K, 32394 kPa	1448.3
333.14 K, 32422 kPa	1448.5
333.14 K, 32458 kPa	1448.6
333.14 K, 32486 kPa	1448.7
333.14 K, 32524 kPa	1448.8
333.14 K, 32553 kPa	1448.9
333.14 K, 32585 kPa	1449.1
333.14 K, 32614 kPa	1449.2
333.14 K, 32648 kPa	1449.3
333.14 K, 32678 kPa	1449.5
333.14 K, 32707 kPa	1449.5
333.14 K, 32736 kPa	1449.7
333.14 K, 32768 kPa	1449.9
333.14 K, 32811 kPa	1449.9
333.14 K, 32840 kPa	1450.1
333.14 K, 32883 kPa	1450.3
333.14 K, 33794 kPa	1453.9
333.14 K, 33829 kPa	1453.8
333.14 K, 33872 kPa	1453.9
333.14 K, 33907 kPa	1454.1
333.14 K, 34179 kPa	1455.3
333.14 K, 34220 kPa	1455.1
333.14 K, 34250 kPa	1455.4
333.14 K, 34294 kPa	1455.5
333.14 K, 34336 kPa	1455.9
333.14 K, 34376 kPa	1455.8
333.14 K, 34409 kPa	1456
333.15 K, 6283 kPa	1289.9
333.15 K, 6309 kPa	1290.2
333.15 K, 6346 kPa	1290.5
333.15 K, 6386 kPa	1291
333.15 K, 6413 kPa	1291.3
333.15 K, 6442 kPa	1291.6
333.15 K, 6789 kPa	1295.3
333.15 K, 6821 kPa	1295.6
333.15 K, 6856 kPa	1296
333.15 K, 6887 kPa	1296.2
333.15 K, 6965 kPa	1297
333.15 K, 7009 kPa	1297.4
333.15 K, 8110 kPa	1308.2
333.15 K, 8143 kPa	1308.5
333.15 K, 8176 kPa	1308.8
333.15 K, 8204 kPa	1309.2
333.15 K, 8236 kPa	1309.5
333.15 K, 8273 kPa	1309.8
333.15 K, 8298 kPa	1310.1
333.15 K, 8328 kPa	1310.3
333.15 K, 8357 kPa	1310.6
333.15 K, 8395 kPa	1311
333.15 K, 8425 kPa	1311.2
333.15 K, 8467 kPa	1311.5
333.15 K, 8497 kPa	1311.8
333.15 K, 8538 kPa	1312.3
333.15 K, 8560 kPa	1312.4
333.15 K, 8592 kPa	1312.8
333.15 K, 8622 kPa	1313
333.15 K, 8665 kPa	1313.3
333.15 K, 8701 kPa	1313.7
333.15 K, 8732 kPa	1313.9
333.15 K, 8768 kPa	1314.3
333.15 K, 8804 kPa	1314.6
333.15 K, 8846 kPa	1314.9
333.15 K, 8884 kPa	1315.2
333.15 K, 8912 kPa	1315.8
333.15 K, 8940 kPa	1316
333.15 K, 9044 kPa	1316.8
333.15 K, 9087 kPa	1317.2
333.15 K, 9121 kPa	1317.5
333.15 K, 9164 kPa	1317.9
333.15 K, 9196 kPa	1318
333.15 K, 9219 kPa	1318.3
333.15 K, 9251 kPa	1318.6
333.15 K, 9270 kPa	1318.8
333.15 K, 9294 kPa	1319
333.15 K, 9321 kPa	1319.3
333.15 K, 9349 kPa	1319.5
333.15 K, 9370 kPa	1319.7
333.15 K, 9402 kPa	1319.9
333.15 K, 9422 kPa	1320.1
333.15 K, 9455 kPa	1320.4
333.15 K, 9483 kPa	1320.7
333.15 K, 9512 kPa	1320.9
333.15 K, 9533 kPa	1321.1
333.15 K, 9552 kPa	1321.1
333.15 K, 9578 kPa	1321.4
333.15 K, 9599 kPa	1321.5
333.15 K, 9631 kPa	1321.9
333.15 K, 9652 kPa	1322.1
333.15 K, 9684 kPa	1322.3
333.15 K, 9713 kPa	1322.7
333.15 K, 9737 kPa	1322.8
333.15 K, 10680 kPa	1330.6
333.15 K, 10703 kPa	1330.9
333.15 K, 10737 kPa	1331
333.15 K, 10763 kPa	1331.3
333.15 K, 10786 kPa	1331.6
333.15 K, 10813 kPa	1331.6
333.15 K, 11004 kPa	1333.2
333.15 K, 11030 kPa	1333.5
333.15 K, 11055 kPa	1333.5
333.15 K, 11083 kPa	1333.8
333.15 K, 11507 kPa	1337.2
333.15 K, 11567 kPa	1337.7
333.15 K, 11594 kPa	1337.8
333.15 K, 11620 kPa	1338
333.15 K, 11651 kPa	1338.3
333.15 K, 11678 kPa	1338.4
333.15 K, 11705 kPa	1338.6
333.15 K, 11734 kPa	1338.8
333.15 K, 11757 kPa	1339
333.15 K, 12501 kPa	1344.5
333.15 K, 12533 kPa	1344.8
333.15 K, 12561 kPa	1345
333.15 K, 12589 kPa	1345.2
333.15 K, 12616 kPa	1345.4
333.15 K, 12648 kPa	1345.7
333.15 K, 12675 kPa	1345.9
333.15 K, 12698 kPa	1346.1
333.15 K, 12730 kPa	1346.2
333.15 K, 12754 kPa	1346.4
333.15 K, 12789 kPa	1346.6
333.15 K, 12823 kPa	1347
333.15 K, 12846 kPa	1347.1
333.15 K, 13551 kPa	1352.2
333.15 K, 13574 kPa	1352.3
333.15 K, 13601 kPa	1352.5
333.15 K, 13746 kPa	1353.4
333.15 K, 13772 kPa	1353.6
333.15 K, 13801 kPa	1353.7
333.15 K, 13830 kPa	1354.1
333.15 K, 13863 kPa	1354.3
333.15 K, 13893 kPa	1354.5
333.15 K, 14170 kPa	1356.5
333.15 K, 14195 kPa	1356.8
